Data as given in patent US11358933B2, “Compounds and methods for inhibiting CYP26 enzymes” (Queen's University at Kingston, priority 2017, dated 2022).

Tests used:
CYP26A1 = CYP26A1 (Homo sapiens (Human), UniProt O43174); assay: Cell-based inhibitor assay ([3H]-RA metabolism), CYP26A1 stably transfected HeLa cells
Description: (§1) CYP26A1 or CYP26B1 stably transfected HeLa cells were maintained in Minimum Essential Medium (MEM) containing 10% fetal bovine serum (FBS) and 100 μg/mL hygromycin. Exponentially growing cells were harvested by incubation in trypsin. Cells were then collected and re-plated in 48-well culture plates at 5×10^5 cells in 0.2 mL of culture medium containing 0.05 μCi [^3H]-RA in the presence or absence of increasing concentrations of a test compound. The test compounds were diluted in dimethyl sulfoxide (DMSO) and then added in duplicate to wells at 0.01, 0.1, 1, 10 and 100 μM final concentration. As a positive control for inhibition of RA metabolism, cells were also incubated with ketoconazole at the same concentrations as above. Cells were incubated for 3 hours at 37° C. Retinoids were then extracted using the procedure of Bligh, et al., (1959), Canadian Journal of Biochemistry 37, 911-917, which was modified by using dichloromethane instead of chloroform. Each sample's water soluble radioactivity level was quantified using a β-scintillation counter (using Ecolume scintillation fluid, available from MP Biomedicals of Solon, Ohio, USA). IC50 values represented the concentration of inhibitor required to inhibit all trans-RA metabolism by 50%, and were derived from log transformed data.

CYP26B1 = CYP26B1 (Homo sapiens (Human), UniProt Q9NR63); assay: Cell-based inhibitor assay ([3H]-RA metabolism), CYP26B1 stably transfected HeLa cells
Description: as §1

[1] = test system: RA target genes in primary human bone marrow cells; assay: RA target gene expression in primary human bone marrow stromal cells; assay type: cell-based; details: co-treatment with RA
THP-1 cells = assay: Leukemia cell colony formation, THP-1 cells; assay type: cell-based, human; details: RA plus compound, culture with stromal cells
Description: This experiment is used to test the long-term proliferative ability of hematopoietic stem and progenitor cells as well as leukemic stem cells. Colony forming ability in long term cultures is indicative of stem/progenitor cell activity. […] For these experiments, bone marrow stromal and leukemic cell co-cultures are prepared as described above and treated with RA and/or CYP26 inhibitor compound for 72 hours. After the treatment period, leukemic cells are collected and re-plated in semi-solid methylcellulose medium to assess colony forming ability. 500 leukemic cells are plated per dish in 35 mm plates in 1.1 ml of MethoCult (available from STEMCELL Technologies, Vancouver, Canada). Triplicate plates are prepared per treatment, and cultures are grown for 14-16 days in a CO2 incubator. After the culture period colonies are counted under a dissecting microscope.

MV4-11 cells = assay: Leukemia cell apoptosis (FITC-Annexin V), MV4-11 cells; assay type: cell-based, human; details: 0.1 μM RA plus 1 μM compound, stromal cells present, 48 hours
Description: RA can also induce apoptosis is a variety of cell types, including AML cells. This experiment tests CYP26 inhibitor compounds for their ability to rescue RA-induced apoptosis in the presence of bone marrow stromal cells. For these experiments MV4-11 AML cells are plated as above, in the presence and absence of stromal monolayers. Cells are then treated for 48 hours with RA (0.1 μM). After the treatment period, cells are stained with a FITC-labeled annexin V antibody (available from Thermofisher Scientific), which binds to the surface of apoptotic cells. Cells are then sorted by FACS in a as above and data are expressed as percentage of annexin V^+ (apoptotic) cells.

kasumi-1 human AML cells = assay: CD34+CD38- LSC analysis by FACS, Kasumi-1 cells with or without OP9 stroma; assay type: cell-based; details: 1 μM RA plus compound, OP9 stroma present, 72 hours
Description: Many human non-APL AML cell lines are sensitive to RA-induced differentiation. However, co-culture of leukemic cells with bone marrow stromal cells can block this effect of RA. This assay tests the ability of CYP26 inhibitor compounds to overcome the protective effect that stromal cells have on leukemic cell differentiation. For these experiments, OP9 mouse bone marrow stromal cells are grown MEM-α containing 20% FBS, in 24 well plates until a cell monolayer is formed. OP9 cells are then irradiated (15Gy) using a GammaCell 20 cesium-137 source (located at Queen's University) in order to induce growth arrest. Leukemic cells are then added to the irradiated monolayers, or control wells without OP9 cells. AML cell lines (150,000 cells) are then plated onto OP9 monolayers in their appropriated growth medium; THP-1 RPMI-1640 medium containing 10% FBS; MDSL, RPMI-1640 medium containing 10% FBS and 10 ng/ml recombinant human IL-3; Kasumi-1, RPMI-1640 containing 20% FBS; MV4-11, IMDM containing 10% FBS. […] Stained cells are then sorted by FACS in a BD FACS Aria 3 flow cytometer (Queen's University) using FACS Diva software, to assess percentage of cells that are CD11b^+, the relative expression levels of CD11b (by median fluorescence intensity—MFI), or percentage of CD34^+CD38^− leukemic stem cells (LSCs). […]

MC3T3-E1 cells = assay: Osteoblast cell differentiation, MC3T3-E1 cells; assay type: cell-based, mouse
Description: These experiments are used to test the ability of CYP26 inhibitors to reduce or block osteoblast differentiation in vitro using a cell culture model. MC3T3-E1 mouse calvarias pre-osteoblasts (available from the American Type Culture Collection) were cultured in MEM-α without ascorbic acid. To induce osteoblast differentiation and matrix mineralization, cells are switched to medium containing ascorbic acid (50 μg/ml) and phosphate (10 mM β-glycerophosphate) and cultured for up to 21 days while changing media every 2-3 days. Cells are also treated with varying concentrations of RA or CYP26 inhibitor compound to assess effects on osteoblast differentiation. At the end of the treatment period, cells in 24-well plates and fixed in 70% ethanol, and stained with Alizarin red (40 mM pH 4.2) to visualize calcified extracellular matrix, indicative of osteoblast differentiation. Stained wells were photographed under a Leica MZ95 dissecting microscope. Other cells grown in 6 well plates are used for RNA extraction, and qPCR analysis of bone differentiation markers and RA target genes.

Chain of CYP26B1 (Q9NR63 whole entry): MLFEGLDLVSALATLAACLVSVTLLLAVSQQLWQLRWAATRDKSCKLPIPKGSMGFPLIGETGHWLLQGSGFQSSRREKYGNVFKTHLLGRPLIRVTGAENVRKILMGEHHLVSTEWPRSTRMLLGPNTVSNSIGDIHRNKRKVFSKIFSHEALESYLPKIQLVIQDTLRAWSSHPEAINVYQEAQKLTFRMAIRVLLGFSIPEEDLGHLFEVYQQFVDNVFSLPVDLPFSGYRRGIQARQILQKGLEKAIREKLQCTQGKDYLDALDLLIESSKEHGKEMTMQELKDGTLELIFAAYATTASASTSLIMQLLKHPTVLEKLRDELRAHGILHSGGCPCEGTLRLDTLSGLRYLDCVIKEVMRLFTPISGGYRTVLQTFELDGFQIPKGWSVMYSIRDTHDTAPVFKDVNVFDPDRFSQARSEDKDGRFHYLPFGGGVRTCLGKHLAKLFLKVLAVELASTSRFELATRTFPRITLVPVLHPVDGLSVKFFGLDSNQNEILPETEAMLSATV
Chain of CYP26A1 (O43174 whole entry): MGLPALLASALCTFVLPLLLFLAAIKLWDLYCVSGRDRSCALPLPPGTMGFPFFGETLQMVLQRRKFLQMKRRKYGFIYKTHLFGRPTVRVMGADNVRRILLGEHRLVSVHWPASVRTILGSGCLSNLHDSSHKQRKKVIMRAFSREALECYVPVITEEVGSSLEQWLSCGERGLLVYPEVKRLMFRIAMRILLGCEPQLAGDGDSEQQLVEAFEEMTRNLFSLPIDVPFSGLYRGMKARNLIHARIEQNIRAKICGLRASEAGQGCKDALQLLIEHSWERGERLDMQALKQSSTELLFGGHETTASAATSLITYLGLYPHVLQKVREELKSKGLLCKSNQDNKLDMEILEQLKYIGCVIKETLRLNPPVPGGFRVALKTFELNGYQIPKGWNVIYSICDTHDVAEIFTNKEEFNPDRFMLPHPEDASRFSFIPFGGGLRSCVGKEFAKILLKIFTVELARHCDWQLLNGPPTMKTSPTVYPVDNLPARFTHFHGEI

CYP26A1 inhibition compared with ketoconazole (CYP26A1; FIG. 1): comparable to ketoconazole
IC50 (CYP26A1; HeLa cell-based assay, 3 hours): 7 µM
CYP26A1 Rel. to keto (CYP26A1; IC50 relative to ketoconazole): 4.4
Selectivity CYP26B1 versus CYP26A1 (CYP26B1; HeLa cell-based assay): highly selective towards CYP26B1
IC50 (CYP26B1; HeLa cell-based assay, 3 hours): 0.2 µM
CYP26B1 Rel. to keto (CYP26B1; IC50 relative to ketoconazole): 0.02
SMILES: CC(C)(C)c1cccc(-c2cc3cc(/C=C/C(=O)O)ccc3[nH]2)c1 [Compound 026]
CYP26B1 inhibition compared with ketoconazole (CYP26B1; FIG. 2): dramatically increased inhibition of CYP26B1 enzyme activity compared with ketoconazole
Expression of RA target genes in response to RA, co-treatment [1]: greatly enhanced and prolonged expression of RA target genes
Colony forming units (THP-1 cells): rescued the effects of RA and decreased colony forming units
RA-induced apoptosis (Annexin V positive cells) (MV4-11 cells): rescued by the addition of compound 026
Number of CD34+CD38- cells (LSCs) (kasumi-1 human AML cells): restored the ability of RA to reduce the number of
Bglap and Ibsp expression (MC3T3-E1 cells; 10 nmol RA plus 1 μM compound): suppressing Bglap and Ibsp expression
Bglap and Ibsp expression (MC3T3-E1 cells; 10 μM compound, osteogenic medium): blocked their expression
Cyp26b1 gene expression (MC3T3-E1 cells; compared with controls): dramatic upregulation of Cyp26b1
Calcified matrix (alizarin red staining) (MC3T3-E1 cells; osteogenic medium, 21 days, increasing concentrations): reduced by the presence of compound 026 in a dose-dependent manner
